Here are results for one compound from PMC5218480 (PLoS ONE, 2017).

SMILES strings stand for the structures.

In this test the test system is MV-4-11 cells. Nature of the test: Gene expression microarray analysis (Affymetrix PrimeView) and GSEA. The format is cell-based, human. The arrangement: RFU PODN (11730768_x_at) / Fold change /veh PODN (11730768_x_at) / RFU LINC00158 (11744669_a_at) / Fold change /veh LINC00158 (11744669_a_at) / RFU DUSP10 (11751237_a_at) / Fold change /veh DUSP10 (11751237_a_at) / RFU ID3 (11757404_x_at) / Fold change /veh ID3 (11757404_x_at) / RFU PLEKHG5 (11737974_s_at) / Fold change /veh PLEKHG5 (11737974_s_at) / RFU LRRC4B (11730491_at) / Fold change /veh LRRC4B (11730491_at) / RFU GIMAP4 (11747438_a_at) / Fold change /veh GIMAP4 (11747438_a_at) / RFU KRT8 (11758183_x_at) / Fold change /veh KRT8 (11758183_x_at) / RFU CNN1 (11734310_a_at) / Fold change /veh CNN1 (11734310_a_at) / RFU VPS37D (11726825_at) / Fold change /veh VPS37D (11726825_at) / RFU C10orf10 (11716522_x_at) / Fold change /veh C10orf10 (11716522_x_at) / RFU KIR2DL2 /// KIR2DL4 /// KIR2DL5A /// KIR2DL5B /// KIR2DS1 /// KIR2DS2 /// KIR2DS3 /// KIR2DS4 /// KIR3DL3 /// KIR3DL3 /// KIR3DS1 (11738374_at) / Fold change /veh KIR2DL2 /// KIR2DL4 /// KIR2DL5A /// KIR2DL5B /// KIR2DS1 /// KIR2DS2 /// KIR2DS3 /// KIR2DS4 /// KIR3DL3 /// KIR3DL3 /// KIR3DS1 (11738374_at) / RFU C1QL1 (11718748_at) / Fold change /veh C1QL1 (11718748_at) / RFU TMPRSS4 (11747572_a_at) / Fold change /veh TMPRSS4 (11747572_a_at) / RFU HAMP (11756126_x_at) / Fold change /veh HAMP (11756126_x_at) / RFU RNFT2 (11725882_a_at) / Fold change /veh RNFT2 (11725882_a_at) / RFU NR4A2 (11747474_a_at) / Fold change /veh NR4A2 (11747474_a_at) / RFU ABCC12 (11746883_a_at) / Fold change /veh ABCC12 (11746883_a_at) / RFU TMEM136 (11760407_x_at) / Fold change /veh TMEM136 (11760407_x_at) / RFU CLDN22 /// WWC2 (11732394_at) / Fold change /veh CLDN22 /// WWC2 (11732394_at) / RFU HLA-DPB1 (11760878_x_at) / Fold change /veh HLA-DPB1 (11760878_x_at) / RFU SPINT1 (11716480_a_at) / Fold change /veh SPINT1 (11716480_a_at) / RFU GAP43 (11754022_s_at) / Fold change /veh GAP43 (11754022_s_at) / RFU A4GNT (11735810_at) / Fold change /veh A4GNT (11735810_at) / RFU PRB3 (11715151_x_at) / Fold change /veh PRB3 (11715151_x_at) / RFU TUBB4B (11761932_at) / Fold change /veh TUBB4B (11761932_at) / RFU CAPN14 (11732068_a_at) / Fold change /veh CAPN14 (11732068_a_at) / RFU TMCC2 (11721928_a_at) / Fold change /veh TMCC2 (11721928_a_at) / RFU IRGQ (11745062_a_at) / Fold change /veh IRGQ (11745062_a_at) / RFU FAM174B (11720279_a_at) / Fold change /veh FAM174B (11720279_a_at) / RFU TMPRSS4 (11748680_a_at) / Fold change /veh TMPRSS4 (11748680_a_at) / RFU FAM212B (11763350_a_at) / Fold change /veh FAM212B (11763350_a_at) / RFU PLEKHG5 (11743358_a_at) / Fold change /veh PLEKHG5 (11743358_a_at) / RFU ZSCAN30 (11745921_a_at) / Fold change /veh ZSCAN30 (11745921_a_at) / RFU CMKLR1 (11741424_a_at) / Fold change /veh CMKLR1 (11741424_a_at) / RFU LOC101060620 /// MAPK8IP1 (11723275_at) / Fold change /veh LOC101060620 /// MAPK8IP1 (11723275_at) / RFU SPTSSB (11747773_x_at) / Fold change /veh SPTSSB (11747773_x_at) / RFU PRSS12 (11739890_at) / Fold change /veh PRSS12 (11739890_at) / RFU BIN1 (11741810_x_at) / Fold change /veh BIN1 (11741810_x_at) / RFU WNT11 (11732464_a_at) / Fold change /veh WNT11 (11732464_a_at) / RFU C10orf10 (11716521_a_at) / Fold change /veh C10orf10 (11716521_a_at) / RFU C5orf56 (11738089_at) / Fold change /veh C5orf56 (11738089_at) / RFU CYB561 (11721691_x_at) / Fold change /veh CYB561 (11721691_x_at) / RFU ANKRD19P (11752326_a_at) / Fold change /veh ANKRD19P (11752326_a_at) / RFU OR2T12 /// OR2T33 /// OR2T8 (11738714_s_at) / Fold change /veh OR2T12 /// OR2T33 /// OR2T8 (11738714_s_at) / RFU VCAN (11748164_a_at) / Fold change /veh VCAN (11748164_a_at) / RFU JSRP1 (11732532_at) / Fold change /veh JSRP1 (11732532_at) / RFU KRTAP10-11 (11738290_x_at) / Fold change /veh KRTAP10-11 (11738290_x_at) / RFU MYO3A (11730013_a_at) / Fold change /veh MYO3A (11730013_a_at) / RFU EBF3 (11725865_a_at) / Fold change /veh EBF3 (11725865_a_at) / RFU CAMK2N1 (11719241_x_at) / Fold change /veh CAMK2N1 (11719241_x_at) / RFU C5orf56 (11738088_a_at) / Fold change /veh C5orf56 (11738088_a_at) / RFU OLFML3 (11715873_a_at) / Fold change /veh OLFML3 (11715873_a_at) / RFU LOC100653217 /// NTM (11731650_a_at) / Fold change /veh LOC100653217 /// NTM (11731650_a_at) / RFU MAPK11 (11762145_a_at) / Fold change /veh MAPK11 (11762145_a_at) / RFU FIZ1 (11724087_x_at) / Fold change /veh FIZ1 (11724087_x_at) / RFU OASL (11726364_x_at) / Fold change /veh OASL (11726364_x_at) / RFU SOX15 (11748057_x_at) / Fold change /veh SOX15 (11748057_x_at) / RFU CD79A (11719716_a_at) / Fold change /veh CD79A (11719716_a_at) / RFU HIST1H1D (11736915_at) / Fold change /veh HIST1H1D (11736915_at) / RFU CASKIN2 (11723855_a_at) / Fold change /veh CASKIN2 (11723855_a_at) / RFU LOC730098 (11760151_x_at) / Fold change /veh LOC730098 (11760151_x_at) / RFU OR4N2 (11742367_at) / Fold change /veh OR4N2 (11742367_at) / RFU PRRT2 (11749266_a_at) / Fold change /veh PRRT2 (11749266_a_at) / RFU SNX32 (11753110_a_at) / Fold change /veh SNX32 (11753110_a_at) / RFU CDHR5 (11726645_a_at) / Fold change /veh CDHR5 (11726645_a_at) / RFU RCAN1 (11760418_a_at) / Fold change /veh RCAN1 (11760418_a_at) / RFU FAM167A (11723789_a_at) / Fold change /veh FAM167A (11723789_a_at) / RFU FAM26E (11764081_at) / Fold change /veh FAM26E (11764081_at) / RFU ISYNA1 (11749810_s_at) / Fold change /veh ISYNA1 (11749810_s_at) / RFU ACY1 (11761880_at) / Fold change /veh ACY1 (11761880_at) / RFU 11764098_at / Fold change /veh 11764098_at / RFU SAMD14 (11745864_x_at) / Fold change /veh SAMD14 (11745864_x_at) / RFU NPB (11741838_a_at) / Fold change /veh NPB (11741838_a_at) / RFU TMPRSS6 (11731388_a_at) / Fold change /veh TMPRSS6 (11731388_a_at) / RFU KRTAP10-2 (11738614_at) / Fold change /veh KRTAP10-2 (11738614_at) / RFU ARHGAP8 /// PRR5-ARHGAP8 (11727945_x_at) / Fold change /veh ARHGAP8 /// PRR5-ARHGAP8 (11727945_x_at) / RFU KRTAP5-7 /// NADSYN1 (11734609_at) / Fold change /veh KRTAP5-7 /// NADSYN1 (11734609_at) / RFU RASL12 (11751679_a_at) / Fold change /veh RASL12 (11751679_a_at) / RFU CDKN2B (11736163_a_at) / Fold change /veh CDKN2B (11736163_a_at) / RFU PRF1 (11729649_at) / Fold change /veh PRF1 (11729649_at) / RFU, ZNF638 /// ZNF638-IT1 / Fold change vs veh, ZNF638 /// ZNF638-IT1 / RFU, PANK3 / Fold change vs veh, PANK3 / RFU, SH3YL1 / Fold change vs veh, SH3YL1 / RFU, ZEB2 / Fold change vs veh, ZEB2 / RFU, NRIP1 / Fold change vs veh, NRIP1 / RFU, PTTG1IP / Fold change vs veh, PTTG1IP / RFU, CAPN2 / Fold change vs veh, CAPN2 / RFU, MED14 / Fold change vs veh, MED14 / RFU, SNORA58 / Fold change vs veh, SNORA58 / RFU, C1orf63 / Fold change vs veh, C1orf63 / RFU, LRRFIP1 / Fold change vs veh, LRRFIP1 / RFU, NDUFAF7 / Fold change vs veh, NDUFAF7 / RFU, SLC12A2 / Fold change vs veh, SLC12A2 / RFU, IBTK / Fold change vs veh, IBTK / RFU, ESF1 / Fold change vs veh, ESF1 / Fold change vs veh, TMEM50B / RFU, TAOK1 / Fold change vs veh, TAOK1 / RFU, ACBD3 / Fold change vs veh, ACBD3 / RFU, TMA16 / Fold change vs veh, TMA16 / RFU, RWDD3 / Fold change vs veh, RWDD3 / RFU, BCAT1 / Fold change vs veh, BCAT1 / RFU, EDEM3 / Fold change vs veh, EDEM3 / RFU, TMEM33 / Fold change vs veh, TMEM33 / RFU, WDR75 / Fold change vs veh, WDR75 / RFU, AHCTF1 / Fold change vs veh, AHCTF1 / RFU, TFRC / Fold change vs veh, TFRC / RFU, ZDHHC17 / Fold change vs veh, ZDHHC17 / RFU, NOM1 / Fold change vs veh, NOM1 / RFU, ARL8B / Fold change vs veh, ARL8B / RFU, ZBTB11 / Fold change vs veh, ZBTB11 / RFU, TAMM41 / Fold change vs veh, TAMM41 / RFU, KIAA1704 /// LOC100996395 / Fold change vs veh, KIAA1704 /// LOC100996395 / RFU, ING1 / Fold change vs veh, ING1 / RFU, TRMT61B / Fold change vs veh, TRMT61B / RFU, FUBP3 / Fold change vs veh, FUBP3 / RFU, TP53 / Fold change vs veh, TP53 / RFU, TNKS2 / Fold change vs veh, TNKS2 / RFU, ZFP14 / Fold change vs veh, ZFP14 / RFU, ACTR2 / Fold change vs veh, ACTR2 / RFU, PPP3R1 / Fold change vs veh, PPP3R1 / RFU, PIK3R1 / Fold change vs veh, PIK3R1 / RFU, HNRNPA1 / Fold change vs veh, HNRNPA1 / RFU, RNF170 / Fold change vs veh, RNF170 / RFU, ZNF28 / Fold change vs veh, ZNF28 / RFU, RNGTT / Fold change vs veh, RNGTT / RFU, OGT / Fold change vs veh, OGT / RFU, BRD1 / Fold change vs veh, BRD1 / RFU, MARS / Fold change vs veh, MARS / RFU, ZNF655 / Fold change vs veh, ZNF655 / RFU, FAHD1 / Fold change vs veh, FAHD1 / RFU, BDP1 / Fold change vs veh, BDP1 / RFU, LRRCC1 / Fold change vs veh, LRRCC1 / RFU, ARID1A / Fold change vs veh, ARID1A / RFU, ZNF146 / Fold change vs veh, ZNF146 / RFU, ZNF330 / Fold change vs veh, ZNF330 / RFU, GPN3 / Fold change vs veh, GPN3 / RFU, C9orf123 / Fold change vs veh, C9orf123 / RFU, N4BP2L2 / Fold change vs veh, N4BP2L2 / RFU, ARFIP1 / Fold change vs veh, ARFIP1 / RFU, FAM179B / Fold change vs veh, FAM179B / RFU, BCL10 / Fold change vs veh, BCL10 / RFU, UHRF1BP1L / Fold change vs veh, UHRF1BP1L / RFU, BET1 / Fold change vs veh, BET1 / RFU, CNOT2 / Fold change vs veh, CNOT2 / RFU, ZNF268 / Fold change vs veh, ZNF268 / Fold change vs veh, ZNF507 / RFU, DGCR2 / Fold change vs veh, DGCR2 / RFU, WDSUB1 / Fold change vs veh, WDSUB1 / Fold change vs veh, HSP90B1 /// MIR3652 / RFU, ADSS / Fold change vs veh, ADSS / RFU, GK / Fold change vs veh, GK / RFU, ZNF148 / Fold change vs veh, ZNF148 / RFU, TAF9 / Fold change vs veh, TAF9 / RFU, SLC1A5 / Fold change vs veh, SLC1A5 / RFU, SLMO2 / Fold change vs veh, SLMO2 / RFU, ABCC4 / Fold change vs veh, ABCC4 / RFU, LOC101060439 /// RAP1B / Fold change vs veh, LOC101060439 /// RAP1B / RFU, RFX7 / Fold change vs veh, RFX7 / RFU, GTPBP10 / Fold change vs veh, GTPBP10 / RFU, CNEP1R1 / Fold change vs veh, CNEP1R1 / RFU, BIVM-ERCC5 /// ERCC5 / Fold change vs veh, BIVM-ERCC5 /// ERCC5 / RFU, ILF3 / Fold change vs veh, ILF3 / RFU 11762660_at / Fold change /veh 11762660_at / RFU VCAN (11757783_s_at) / Fold change /veh VCAN (11757783_s_at) / RFU DDX43 (11728927_at) / Fold change /veh DDX43 (11728927_at) / RFU KRT8 (11758188_x_at) / Fold change /veh KRT8 (11758188_x_at) / RFU NKD1 (11759106_at) / Fold change /veh NKD1 (11759106_at) / RFU SRD5A1 (11742802_a_at) / Fold change /veh SRD5A1 (11742802_a_at) / RFU TPSAB1 /// TPSB2 (11721975_s_at) / Fold change /veh TPSAB1 /// TPSB2 (11721975_s_at) / RFU GSTM3 (11746129_a_at) / Fold change /veh GSTM3 (11746129_a_at) / RFU IL23R (11737362_x_at) / Fold change /veh IL23R (11737362_x_at) / RFU TMEM51 (11727254_a_at) / Fold change /veh TMEM51 (11727254_a_at) / RFU PIWIL2 (11732686_x_at) / Fold change /veh PIWIL2 (11732686_x_at) / RFU ORM1 (11744905_x_at) / Fold change /veh ORM1 (11744905_x_at) / RFU CCDC152 (11743942_at) / Fold change /veh CCDC152 (11743942_at) / RFU ECM1 (11717891_a_at) / Fold change /veh ECM1 (11717891_a_at) / RFU IL23R (11748794_a_at) / Fold change /veh IL23R (11748794_a_at) / RFU TNFAIP8L3 (11732012_x_at) / Fold change /veh TNFAIP8L3 (11732012_x_at) / RFU MBOAT4 (11741988_at) / Fold change /veh MBOAT4 (11741988_at) / RFU 11764193_at / Fold change /veh 11764193_at / RFU TMEM53 (11763286_at) / Fold change /veh TMEM53 (11763286_at) / RFU MAGEB2 (11727129_at) / Fold change /veh MAGEB2 (11727129_at) / RFU TMEM200A (11744735_a_at) / Fold change /veh TMEM200A (11744735_a_at) / RFU CCDC152 (11751479_a_at) / Fold change /veh CCDC152 (11751479_a_at) / RFU FAM211A (11726209_a_at) / Fold change /veh FAM211A (11726209_a_at) / RFU RGS16 (11746705_a_at) / Fold change /veh RGS16 (11746705_a_at) / RFU VCAN (11755009_s_at) / Fold change /veh VCAN (11755009_s_at) / RFU RHOB (11743442_s_at) / Fold change /veh RHOB (11743442_s_at) / RFU RGS16 (11720943_a_at) / Fold change /veh RGS16 (11720943_a_at) / RFU RGS16 (11720944_at) / Fold change /veh RGS16 (11720944_at) / RFU, VPS4B / Fold change vs veh, VPS4B / RFU, CREB1 / Fold change vs veh, CREB1 / RFU, DNAJC13 / Fold change vs veh, DNAJC13 / RFU, GNAQ / Fold change vs veh, GNAQ / RFU, CDK5R1 / Fold change vs veh, CDK5R1 / RFU, ZRANB3 / Fold change vs veh, ZRANB3 / RFU, CUL4A / Fold change vs veh, CUL4A / RFU, CCNY / Fold change vs veh, CCNY / RFU, UFL1 / Fold change vs veh, UFL1 / RFU, COG3 / Fold change vs veh, COG3 / RFU, DIAPH2 / Fold change vs veh, DIAPH2 / RFU, SKA2 / Fold change vs veh, SKA2 / RFU, AFF3 / Fold change vs veh, AFF3 / RFU, LMF1 / Fold change vs veh, LMF1 / RFU, IPO11 / Fold change vs veh, IPO11 / RFU, DFFB / Fold change vs veh, DFFB / RFU, FOXP1 / Fold change vs veh, FOXP1 / RFU, CARD8 / Fold change vs veh, CARD8 / RFU, STRN3 / Fold change vs veh, STRN3 / RFU, ADK / Fold change vs veh, ADK / RFU, RASSF2 / Fold change vs veh, RASSF2 / RFU, WIPF1 / Fold change vs veh, WIPF1 / RFU, LARP1B / Fold change vs veh, LARP1B / RFU, RASA1 / Fold change vs veh, RASA1 / RFU, RB1 / Fold change vs veh, RB1 / RFU, PPFIA1 / Fold change vs veh, PPFIA1 / RFU, MAT2A / Fold change vs veh, MAT2A / RFU, CCT5 / Fold change vs veh, CCT5 / RFU, WDR92 / Fold change vs veh, WDR92 / RFU, CUX1 / Fold change vs veh, CUX1 / RFU, TTC7A / Fold change vs veh, TTC7A / RFU, TMEM135 / Fold change vs veh, TMEM135 / RFU, DEPTOR / Fold change vs veh, DEPTOR / RFU, CPM / Fold change vs veh, CPM / RFU, DNAJB6 / Fold change vs veh, DNAJB6 / RFU, CACNA2D3 / Fold change vs veh, CACNA2D3 / RFU, DTX4 / Fold change vs veh, DTX4 / RFU, TFCP2 / Fold change vs veh, TFCP2 / RFU, GMCL1 /// GMCL1P1 / Fold change vs veh, GMCL1 /// GMCL1P1 / RFU, AEBP2 / Fold change vs veh, AEBP2 / RFU, SNHG1 /// SNORD22 /// SNORD25 /// SNORD26 /// SNORD27 /// SNORD28 /// SNORD29 /// SNORD31 / Fold change vs veh, SNHG1 /// SNORD22 /// SNORD25 /// SNORD26 /// SNORD27 /// SNORD28 /// SNORD29 /// SNORD31 / Fold change (Aza/veh), C12orf56 (ProbeSet 11735607_a_at) / Fold change (ACY-1035/veh), C12orf56 (ProbeSet 11735607_a_at) / Fold change (Aza/veh), FGFR1OP (ProbeSet 11751329_s_at) / Fold change (ACY-1035/veh), FGFR1OP (ProbeSet 11751329_s_at) / Fold change (Aza/veh), VPS36 (ProbeSet 11739960_a_at) / Fold change (ACY-1035/veh), VPS36 (ProbeSet 11739960_a_at) / RFU SYPL1 (11715823_x_at) / Fold change /veh SYPL1 (11715823_x_at) / RFU IGFBP7 (11715501_s_at) / Fold change /veh IGFBP7 (11715501_s_at) / RFU REEP3 (11722064_at) / Fold change /veh REEP3 (11722064_at) / RFU IGLL1 (11728026_x_at) / Fold change /veh IGLL1 (11728026_x_at): dose or concentration left out as unconfirmed. As to conditions: ProbeSet 11755070_a_at; LIST D.

For `Nc1ccc(-c2cccs2)cc1NC(=O)c1ccc2c(c1)cc(C1CC1)n2CCN1CCOCC1` [ACY-1035], the “RFU, CARD8” value turned out to be 173.18 RFU.
